Results published in PubChem BioAssay (NCI).
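Growth conditions: 96-well plates. Treatment: test compound, 48 hours, 5 concentrations. Analysis: linear interpolation between bracketing concentrations; unreached endpoints set to highest concentration. TGI marks complete inhibition of growth.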

Assays:
Assay in all cases: NCI tumour cell line growth inhibition, 48 h
SF-268 CNS = tested on: SF-268 CNS
SK-MEL-28 melanoma = tested on: SK-MEL-28 melanoma
RXF 393 renal = tested on: RXF 393 renal
SNB-19 CNS = tested on: SNB-19 CNS
U251 CNS = tested on: U251 CNS
SK-OV-3 ovarian = tested on: SK-OV-3 ovarian
LOX IMVI melanoma = tested on: LOX IMVI melanoma
A549 NSCLC = tested on: A549 NSCLC
HCT-116 colon = tested on: HCT-116 colon
HOP-62 NSCLC = tested on: HOP-62 NSCLC
MALME-3M melanoma = tested on: MALME-3M melanoma
KM12 colon = tested on: KM12 colon
HL-60(TB) leukemia = tested on: HL-60(TB) leukemia
SW-620 colon = tested on: SW-620 colon
SK-MEL-2 melanoma = tested on: SK-MEL-2 melanoma
MOLT-4 leukemia = tested on: MOLT-4 leukemia
NCI-H23 lung = tested on: NCI-H23 lung
DMS 273 small cell lung = tested on: DMS 273 small cell lung
UACC-257 melanoma = tested on: UACC-257 melanoma
M14 melanoma = tested on: M14 melanoma
786-0 renal = tested on: 786-0 renal
SR leukemia = tested on: SR leukemia
TK-10 renal = tested on: TK-10 renal
SNB-78 CNS = tested on: SNB-78 CNS
OVCAR-4 ovarian = tested on: OVCAR-4 ovarian
OVCAR-5 ovarian = tested on: OVCAR-5 ovarian
HCC-2998 colon = tested on: HCC-2998 colon
ACHN renal = tested on: ACHN renal
RPMI-8226 leukemia = tested on: RPMI-8226 leukemia
HOP-18 NSCLC = tested on: HOP-18 NSCLC
COLO 205 colon = tested on: COLO 205 colon
NCI-H522 lung = tested on: NCI-H522 lung
KM20L2 colon = tested on: KM20L2 colon
DLD-1 colon = tested on: DLD-1 colon
HCT-15 colon = tested on: HCT-15 colon
NCI-H226 lung = tested on: NCI-H226 lung
SN12C renal = tested on: SN12C renal
LXFL 529 NSCLC = tested on: LXFL 529 NSCLC
SNB-75 CNS = tested on: SNB-75 CNS
SK-MEL-5 melanoma = tested on: SK-MEL-5 melanoma
HOP-92 NSCLC = tested on: HOP-92 NSCLC
XF 498 CNS = tested on: XF 498 CNS
RXF-631 renal = tested on: RXF-631 renal
CAKI-1 renal = tested on: CAKI-1 renal
SF-295 CNS = tested on: SF-295 CNS
K-562 leukemia = tested on: K-562 leukemia
HT29 colon = tested on: HT29 colon
EKVX NSCLC = tested on: EKVX NSCLC
CCRF-CEM leukemia = tested on: CCRF-CEM leukemia
OVCAR-3 ovarian = tested on: OVCAR-3 ovarian
OVCAR-8 ovarian = tested on: OVCAR-8 ovarian
IGROV1 ovarian = tested on: IGROV1 ovarian
UACC-62 melanoma = tested on: UACC-62 melanoma
UO-31 renal = tested on: UO-31 renal
NCI-H460 lung = tested on: NCI-H460 lung
A498 renal = tested on: A498 renal
SF-539 CNS = tested on: SF-539 CNS
M19-MEL melanoma = tested on: M19-MEL melanoma
DMS 114 small cell lung = tested on: DMS 114 small cell lung

Compound: C#CCn1c(=O)[nH]c(=O)c2cccnc21
- TGI (SF-268 CNS): > 100 µM
- TGI (SK-MEL-28 melanoma): > 100 µM
- TGI (RXF 393 renal): > 100 µM
- TGI (SNB-19 CNS): > 100 µM
- TGI (U251 CNS): > 100 µM
- TGI (SK-OV-3 ovarian): > 100 µM
- TGI (LOX IMVI melanoma): > 100 µM
- TGI (A549 NSCLC): > 100 µM
- TGI (HCT-116 colon): > 100 µM
- TGI (HOP-62 NSCLC): > 100 µM
- TGI (MALME-3M melanoma): > 100 µM
- TGI (KM12 colon): > 100 µM
- TGI (HL-60(TB) leukemia): > 100 µM
- TGI (SW-620 colon): > 100 µM
- TGI (SK-MEL-2 melanoma): > 100 µM
- TGI (MOLT-4 leukemia): > 100 µM
- TGI (NCI-H23 lung): > 100 µM
- TGI (DMS 273 small cell lung): > 100 µM
- TGI (UACC-257 melanoma): > 100 µM
- TGI (M14 melanoma): > 100 µM
- TGI (786-0 renal): > 100 µM
- TGI (SR leukemia): > 100 µM
- TGI (TK-10 renal): > 100 µM
- TGI (SNB-78 CNS): > 100 µM
- TGI (OVCAR-4 ovarian): > 100 µM
- TGI (OVCAR-5 ovarian): > 100 µM
- TGI (HCC-2998 colon): > 100 µM
- TGI (ACHN renal): > 100 µM
- TGI (RPMI-8226 leukemia): > 100 µM
- TGI (HOP-18 NSCLC): > 100 µM
- TGI (COLO 205 colon): > 100 µM
- TGI (NCI-H522 lung): > 100 µM
- TGI (KM20L2 colon): > 100 µM
- TGI (DLD-1 colon): > 100 µM
- TGI (HCT-15 colon): > 100 µM
- TGI (NCI-H226 lung): > 100 µM
- TGI (SN12C renal): > 100 µM
- TGI (LXFL 529 NSCLC): > 100 µM
- TGI (SNB-75 CNS): > 100 µM
- TGI (SK-MEL-5 melanoma): > 100 µM
- TGI (HOP-92 NSCLC): > 100 µM
- TGI (XF 498 CNS): > 100 µM
- TGI (RXF-631 renal): > 100 µM
- TGI (CAKI-1 renal): > 100 µM
- TGI (SF-295 CNS): > 100 µM

Compound: Cc1cc(C)nc(NS(=O)(=O)c2ccc(NC(=O)c3cccc4c(Nc5ccc(S(=O)(=O)N=C(N)N)cc5)c5ccccc5nc34)cc2)n1
- TGI (SF-268 CNS): > 100 µM
- TGI (SK-MEL-28 melanoma): 99.8 µM
- TGI (RXF 393 renal): 52 µM
- TGI (SNB-19 CNS): > 100 µM
- TGI (K-562 leukemia): > 100 µM
- TGI (U251 CNS): > 100 µM
- TGI (SK-OV-3 ovarian): > 100 µM
- TGI (LOX IMVI melanoma): > 100 µM
- TGI (HT29 colon): > 100 µM
- TGI (EKVX NSCLC): 83.2 µM
- TGI (A549 NSCLC): > 100 µM
- TGI (HCT-116 colon): > 100 µM
- TGI (HOP-62 NSCLC): 94.3 µM
- TGI (CCRF-CEM leukemia): > 100 µM
- TGI (MALME-3M melanoma): > 100 µM
- TGI (KM12 colon): 26.9 µM
- TGI (HL-60(TB) leukemia): 26.6 µM
- TGI (OVCAR-3 ovarian): 35.5 µM
- TGI (SW-620 colon): 42.4 µM
- TGI (OVCAR-8 ovarian): > 100 µM
- TGI (IGROV1 ovarian): > 100 µM
- TGI (SK-MEL-2 melanoma): > 100 µM
- TGI (UACC-62 melanoma): > 100 µM
- TGI (MOLT-4 leukemia): > 100 µM
- TGI (UO-31 renal): > 100 µM
- TGI (NCI-H23 lung): > 100 µM
- TGI (DMS 273 small cell lung): 80.6 µM
- TGI (UACC-257 melanoma): 60 µM
- TGI (M14 melanoma): > 100 µM
- TGI (786-0 renal): 83.6 µM
- TGI (NCI-H460 lung): > 100 µM
- TGI (TK-10 renal): 92.3 µM
- TGI (SNB-78 CNS): 99.2 µM
- TGI (OVCAR-4 ovarian): 43.7 µM
- TGI (OVCAR-5 ovarian): > 100 µM
- TGI (A498 renal): > 100 µM
- TGI (HCC-2998 colon): 22.6 µM
- TGI (ACHN renal): > 100 µM
- TGI (RPMI-8226 leukemia): > 100 µM
- TGI (HOP-18 NSCLC): > 100 µM
- TGI (COLO 205 colon): > 100 µM
- TGI (NCI-H522 lung): > 100 µM
- TGI (KM20L2 colon): > 100 µM
- TGI (DLD-1 colon): 42.8 µM
- TGI (HCT-15 colon): > 100 µM
- TGI (SN12C renal): > 100 µM
- TGI (SF-539 CNS): > 100 µM
- TGI (LXFL 529 NSCLC): 59.1 µM
- TGI (M19-MEL melanoma): > 100 µM
- TGI (SNB-75 CNS): > 100 µM
- TGI (SK-MEL-5 melanoma): > 100 µM
- TGI (HOP-92 NSCLC): 81.7 µM
- TGI (XF 498 CNS): > 100 µM
- TGI (RXF-631 renal): > 100 µM
- TGI (CAKI-1 renal): 55.2 µM
- TGI (SF-295 CNS): > 100 µM

Compound: CCOC(=O)NC(=O)c1cn(CCN2CCN(C(=O)CCCCCCCCCCNc3ncnc4c3ncn4C3OC(CO)C(O)C3O)CC2)c(=O)[nH]c1=O (stereo not drawn)
- TGI (SF-268 CNS): > 100 µM
- TGI (SK-MEL-28 melanoma): > 100 µM
- TGI (SNB-19 CNS): > 100 µM
- TGI (K-562 leukemia): > 100 µM
- TGI (U251 CNS): > 100 µM
- TGI (SK-OV-3 ovarian): > 100 µM
- TGI (LOX IMVI melanoma): > 100 µM
- TGI (HT29 colon): > 100 µM
- TGI (A549 NSCLC): > 100 µM
- TGI (HCT-116 colon): > 100 µM
- TGI (HOP-62 NSCLC): > 100 µM
- TGI (CCRF-CEM leukemia): > 100 µM
- TGI (MALME-3M melanoma): > 100 µM
- TGI (KM12 colon): > 100 µM
- TGI (HL-60(TB) leukemia): > 100 µM
- TGI (SW-620 colon): > 100 µM
- TGI (OVCAR-8 ovarian): > 100 µM
- TGI (IGROV1 ovarian): > 100 µM
- TGI (SK-MEL-2 melanoma): > 100 µM
- TGI (UACC-62 melanoma): > 100 µM
- TGI (MOLT-4 leukemia): > 100 µM
- TGI (UO-31 renal): > 100 µM
- TGI (NCI-H23 lung): > 100 µM
- TGI (UACC-257 melanoma): > 100 µM
- TGI (M14 melanoma): > 100 µM
- TGI (786-0 renal): > 100 µM
- TGI (NCI-H460 lung): > 100 µM
- TGI (SR leukemia): > 100 µM
- TGI (TK-10 renal): > 100 µM
- TGI (SNB-78 CNS): > 100 µM
- TGI (A498 renal): > 100 µM
- TGI (HCC-2998 colon): > 100 µM
- TGI (ACHN renal): > 100 µM
- TGI (COLO 205 colon): > 100 µM
- TGI (KM20L2 colon): > 100 µM
- TGI (DLD-1 colon): > 100 µM
- TGI (HCT-15 colon): > 100 µM
- TGI (SN12C renal): > 100 µM
- TGI (LXFL 529 NSCLC): > 100 µM
- TGI (SNB-75 CNS): > 100 µM
- TGI (SK-MEL-5 melanoma): > 100 µM
- TGI (HOP-92 NSCLC): > 100 µM
- TGI (DMS 114 small cell lung): > 100 µM
- TGI (XF 498 CNS): > 100 µM
- TGI (RXF-631 renal): > 100 µM
- TGI (CAKI-1 renal): > 100 µM
- TGI (SF-295 CNS): > 100 µM
